{"source": "paper PMC8766756", "about": "“Insights on Cancer Cell Inhibition, Subcellular Activities, and Kinase Profile of Phenylacetamides Pending 1H-Imidazol-5-One Variants” (Frontiers in Pharmacology, 2022)", "key": {"[1]": {"assay": "Maximum kinetic aqueous solubility", "assay_type": "physicochemical", "conditions": "phosphate buffer, pH 7.4, aqueous buffer, kinetic from dmso stock", "procedure": "Solubility assays were performed using the Millipore MultiScreen® HTS-PFC Filter Plates designed for the solubility assays (EMD Millipore, Billerica, MA). Assays were run in triplicate. The 96-well plates consist of two chambers separated by a filter. Liquid handling was performed using JANUS® Verispan and MTD workstations (Perkin Elmer, Waltham, MA). About 4 µL of the KIM-161 solution (10 mM in DMSO) was added to 196 µL of phosphate buffer (45 mM potassium phosphate, 45 mM sodium acetate, 45 mM ethanolamine, pH = 7.4) in the top chamber to give a final DMSO concentration of 2% and a theoretical drug concentration of 200 µM. The plates were gently shaken for 90 min and then subjected to vacuum. The insoluble drug was captured on the filter. 160 µL of the filtrate was transferred to 96-well Griener UV-Star® analysis plates (Sigma-Aldrich, St. Louis, MO) containing 40 µL of acetonitrile. The test compound concentration in the filtrate is measured by UV absorbance on a Spectromax® Plus microplate reader (Molecular Devices, Sunnyvale, CA) using SoftMax Pro Software v.5.4.5. The absorbances at five wavelengths (280, 300, 320, 340, and 360 nm) were summed to generate the UV signal. Standard curves were generated by adding 4 µL of five concentrations of the test compound in DMSO to 40 µL of acetonitrile in UV Star plates followed by 156 µL of the appropriate solubility medium. […]"}, "Chk-2": {"tested_on": "Chk-2", "assay": "Human Phospho-Kinase Array in HL60 cells", "assay_type": "cell-based", "from_the_text": "(§1) We also measured changes in kinase activities of some selected Ser/Thr kinases using the Human Phospho-Kinase Array® kit (R&D Systems) which encompasses phosphoprotein-specific capture antibodies spotted at a certain location (in duplicates) on a nitrocellulose membrane. The signal intensities, detected by a sandwich immunoassay, are proportional to the amount of each phosphokinase in the cell lysate (Figure 8).\n(§2) FIGURE 8 Phosphokinase proteome profile of KIM-161 in HL60 cell line. (A) Cells lysates were prepared after 10 h treatment with KIM-161 and applied to the membranes prespotted with the different antibodies. […] The height of each bar represents the average intensity of certain protein signals in treated cells/untreated × 100. Therefore, the dotted line represents the control percentage (100%).\n(§3) The phosphorylation profile of 48 kinases was performed using the Proteome Profiler Human Phospho-Kinase Array an antibody array kit, by R&D Systems (Minneapolis, MN, USA). Total protein was extracted from the cell lysates treated with 365 nM KIM-161 for 10 h using the lysis buffer provided in the kit and quantified using the Bio-Rad DC Protein Assay kit (USA). The nitrocellulose membrane set (A&B), pre-spotted with the capture antibodies, was first blocked with 1 ml of Array buffer 1 at RT for 1 h in an 8-well multi-dish on a rocking platform shaker. Approximately 600 µg of protein concentrate (<334 µL) was diluted in the Array buffer 1 to a final volume of 2 ml. 1 ml of the protein sample was added onto the membrane set and incubated overnight at 4°C on a rocking platform shaker. Subsequently, membranes were washed with 15 ml of 1× wash buffer thrice for 5 min at RT, and the excess buffer was completely drained. The membranes A&B were then incubated with appropriate detection antibody cocktails A&B that were reconstituted using the 1× Array buffer 2/3 for 2 h at RT. After the incubation was complete, the membranes were washed with 15 ml of 1× wash buffer thrice for 5 min at RT, and the excess buffer was completely drained. Streptavidin-HRP (1:2000), diluted in 1× Array buffer 2/3, was applied onto the membranes and incubated for 30 min at RT on a rocking platform shaker. The membranes were washed thrice, and Chemi Reagent 1&2 were applied in equal volumes for detection on C-DiGit®Blot Scanner (LI-COR Odyssey Imaging Systems, Lincoln, Nebraska, USA) using the Image Studio 5.0 software."}, "STAT2 (Y689)": {"tested_on": "STAT2 (Y689)", "assay": "Human Phospho-Kinase Array in HL60 cells", "assay_type": "cell-based", "from_the_text": "as §1, §2, §3"}, "[2]": {"assay": "Reactivity with GSH (LC/MS)", "assay_type": "physicochemical", "conditions": "37°C", "from_the_text": "Because KIM-161 contains α,β-enone moiety, it was investigated for its reactivity with glutathione (GSH), an important cellular component for maintaining the desired redox balance ([Aquilano et al., 2014]).\nGSH and solvents were purchased from Sigma-Aldrich. The LC/MS system is composed of an Agilent 1200 HPLC system, a solvent delivery module, a quaternary pump, an autosampler, and a column compartment (Agilent Technology, Germany). The column effluent was connected to an Agilent 6320 Ion Trap-ESI-MS. The column heater was set to 25 ± 2°C. The control of the HPLC system and data processing were performed using ChemStation (Rev. B.01.03 SR2-204) and 6300 Series Trap Control version 6.2 Build No. 62.24 (Bruker Daltonik GmbH). The analytes were separated using an Agilent Zorbax Extend-C18 column (80Å, 150 mm length × 4.6 mm, i.d., 5 μm) and Agilent-Zorbax Extend-C18 pre-column (Agilent Technologies, Palo Alto, CA, USA). The general MS adjustments were set as follows: capillary voltage, 4000 V; nebulizer, 35 psi; drying gas, 12 L/min; desolvation temperature, 350°C; ion charge control smart target, 150,000; and max. accumulation time, 150 ms. The Auto-MSn positive mode was applied. The mobile system was isocratic elution using 55% acetonitrile and 45% water containing 0.1% formic acid (w/v). […]"}, "[3]": {"conditions": "Chk-2 spot, HL60 cells, 10 h (KIM-161 365 nM)"}, "[4]": {"conditions": "STAT2 spot, HL60 cells, 10 h (KIM-161 365 nM)"}}, "note": "Entries after “also recorded” stand apart in the source; their conditions may differ. Read-outs that look alike come from different tables or passages of the source."}
{"smiles": "COc1ccc(/C=C2\\N=C(C)N(c3ccc(CC(=O)NCc4ccccc4)cc3)C2=O)cc1", "note": "[Compound 4c, (Z)-N-Benzyl-2-(4-(4-(4-methoxybenzylidene)-2-methyl-5-oxo-4,5-dihydro-1H-imidazol-1-yl)phenyl)acetamide]", "values": [{"measurement": "solubility at 90 min", "setting": "[1]; Max solubility in 2% DMSO/PBS, kinetic, pH 7.4", "value": 19.9, "unit": "µM"}, {"measurement": "solubility at 90 min", "setting": "[1]; read-out: solubility", "value": "~20", "unit": "µM"}, {"measurement": "Normalized to HK", "setting": "Chk-2; [3]", "value": 0.00913}, {"measurement": "Normalized x10K", "setting": "Chk-2; [3]", "value": 91.25}, {"measurement": "Signal", "setting": "Chk-2; [3]", "value": 32.06}, {"measurement": "change of Chk-2 activity", "setting": "Chk-2; HL60, 365 nM, 10 h, vs untreated", "value": "upregulated"}, {"measurement": "change of STAT2 phosphokinase signal", "setting": "STAT2 (Y689); HL60, 365 nM, 10 h, vs untreated, listed as KIM-161", "value": "strongly suppresses; also recorded: strong downregulation"}, {"measurement": "activity at 0.365 µM", "setting": "STAT2 (Y689); Homo sapiens, HL-60, STAT2 spot, HL60 cells, 10 h (KIM-161 365 nM), untreated = 100, read-out: % Ctrl", "value": 0, "unit": "%"}, {"measurement": "Normalized to HK", "setting": "STAT2 (Y689); [4]", "value": 0.00}, {"measurement": "Normalized x10K", "setting": "STAT2 (Y689); [4]", "value": 0.00}, {"measurement": "Signal", "setting": "STAT2 (Y689); [4]", "value": 0.00}, {"measurement": "Reactivity with GSH", "setting": "[2]; pH 7.5, up to 48 h, LC/MS, listed as KIM-161", "value": "did not show any significant reaction with GSH; also recorded: could not react with GSH; also recorded: No reaction"}, {"measurement": "unreacted compound (UV spectrum)", "setting": "[2]; after 48 h with GSH", "value": "> 98", "unit": "%"}]}
